Source: patent US20090082337A1, “Compositions Comprising Quinolone and Methods for Treating or Controlling Infections” (priority 2007, published 2009)
Converted amounts (≈) assume the structure as drawn.

Tests used:
[1] = tested on: Bacillis subtilis (ATCC 6633); assay: In vitro anti-bacterial activity (MIC90), Gram-positive bacteria; assay type: cell-based; details: Gram-positive reference strain
Protocol: (§1) In yet another aspect, said another quinolone has a MIC90 value for a Gram-negative bacterium that is lower than that of the fluoroquinolone having Formula I, II, III, IV, V, VI, VII, or VIII for the same bacterium, said fluoroquinolone being included in the composition. MIC90 is the minimum concentration of the active compound required to inhibit ninety percent of the growth of a specified pathogen, in μg/ml. Anti-bacterial activity of the compound having Formula […] was tested against several Gram-positive reference bacteria strains and compared to the anti-bacterial activity of three commercially available antibiotics (nadifloxacin, ofloxacin, and sparfloxacin).

[2] = tested on: Sarcina lutea (ATCC 9341); assay: as above; assay type: cell-based; details: Micrococcus luteus, ATCC9341, Gram-positive reference strain
Protocol: as §1

[3] = tested on: Staphylococcus aureus (ATCC 25933); assay: as above; assay type: cell-based; details: ATCC25933, Gram-positive reference strain
Protocol: as §1

[4] = tested on: Staphylococcus aureus (FDA 209P); assay: as above; assay type: cell-based; details: FDA209P, Gram-positive reference strain
Protocol: as §1

[5] = tested on: Staphylococcus aureus (Smith); assay: as above; assay type: cell-based; details: Gram-positive reference strain
Protocol: as §1

[6] = tested on: Staphylococcus epidermidis (ATCC 12228); assay: as above; assay type: cell-based; details: ATCC12228, Gram-positive reference strain
Protocol: as §1

[7] = tested on: Streptococcus faecalis (IFO 12964); assay: as above; assay type: cell-based; details: Enterococcus faecalis, IFO12964, Gram-positive reference strain
Protocol: as §1

[8] = tested on: Streptococcus pneniae (IID 554); assay: as above; assay type: cell-based; details: IID554, Gram-positive reference strain
Protocol: as §1

[9] = tested on: Streptococcus pyogenes (Cook); assay: as above; assay type: cell-based; details: Gram-positive reference strain
Protocol: as §1

[10] = tested on: Streptococcus pyogenes (IID 698); assay: as above; assay type: cell-based; details: IID698, Gram-positive reference strain
Protocol: as §1

[11] = tested on: Propionibacterium acnes (GAI 5419); assay: In vitro anti-bacterial activity (MIC90), anaerobic bacteria; assay type: cell-based; details: Cutibacterium acnes, anaerobic reference bacteria
[12] = tested on: Bacteroides fragillis (GAI 0675); assay: as above; assay type: cell-based; details: anaerobic reference bacteria
Moraxella species = assay: In vitro anti-bacterial activity (MIC90), ophthalmologic clinical bacteria isolates; assay type: cell-based; details: Gram-negative
Pseudomonas aeruginosa = assay: as above; assay type: cell-based; details: Gram-negative
Haemophilus influenzae = assay: as above; assay type: cell-based; details: Gram-negative
Staphylococcus aureus = assay: as above; assay type: cell-based; details: Gram-positive
[13] = tested on: Coagulase-negative Staphylococcus; assay: as above; assay type: cell-based; details: Gram-positive
Streptococcus pneumoniae = assay: as above; assay type: cell-based; details: Gram-positive
Corynebacterium species = assay: as above; assay type: cell-based; details: Gram-positive
Excerpt: As disclosed above, most of these bacteria strains are also relevant to infections of the ear and upper respiratory tract.

Propionibacterium acnes = assay: as above; assay type: cell-based; details: Cutibacterium acnes, Gram-positive
[14] = tested on: Ofloxacin-resistant Staphylococcus aureus; assay: as above; assay type: cell-based; details: antibiotic-resistant organisms
[15] = tested on: Gentamycin-resistant Staphylococcus aureus; assay: as above; assay type: cell-based; details: antibiotic-resistant organisms
[16] = tested on: Gentamycin-resistant Pseudomonas aeruginosa; assay: as above; assay type: cell-based; details: antibiotic-resistant organisms
[17] = tested on: Penicillin-resistant Streptococcus pneumoniae; assay: as above; assay type: cell-based; details: antibiotic-resistant organisms
E. coli (ATCC 25922) = assay: MICs of compound having Formula IV and ciprofloxacin alone and in combination; assay type: cell-based; details: Escherichia coli, ATCC25922, alone, read-out: MIC, drug alone
Protocol: (§2) Compositions having various combinations of concentrations of compound having Formula IV and cirprofloxacin were tested systematically against S. aureus, P. aeruginosa, and E. coli.

[18] = tested on: P. aeruginosa (ATCC 27853); assay: as above; assay type: cell-based; details: Pseudomonas aeruginosa, ATCC27853, alone, read-out: MIC, drug alone
Protocol: as §2

S. aureus (ATCC 29213) = assay: as above; assay type: cell-based; details: Staphylococcus aureus, ATCC29213, alone, read-out: MIC, drug alone
Protocol: as §2

[19] = Stability of the compound having Formula IV in solution; assay type: physicochemical; details: for remaining amount of the compound in solution: initial concentration 100 μg/ml
Excerpt: The stability of the compound having Formula IV in solution is shown in Table 7, as the remaining amount (expressed as the percentage of the initial amount) of the compound after selected times. The compound is stable in the pH range of most interest for the present invention.

SMILES: N[C@@H]1CCCCN(c2c(F)cc3c(=O)c(C(=O)O)cn(C4CC4)c3c2Cl)C1 [Compound Having Formula IV]
- MIC90 [1]: 0.012 µg/mL
- MIC90 [2]: 0.1 µg/mL
- MIC90 [3]: 0.05 µg/mL
- MIC90 [4]: 0.012 µg/mL
- MIC90 [5]: 0.006 µg/mL
- MIC90 [6]: 0.05 µg/mL
- MIC90 [7]: 0.1 µg/mL
- MIC90 [8]: 0.2 µg/mL
- MIC90 [9]: 0.1 µg/mL
- MIC90 [10]: 0.1 µg/mL
- MIC90 [11]: 0.2 µg/mL
- MIC90 [12]: 0.1 µg/mL
- MIC90 (Moraxella species): 0.13 µg/mL
- MIC90 (Pseudomonas aeruginosa): 4 µg/mL
- MIC90 (Haemophilus influenzae): ≤ 0.06 µg/mL
- MIC90 (Staphylococcus aureus): 1 µg/mL
- MIC90 [13]: 0.5 µg/mL
- MIC90 (Streptococcus pneumoniae): 0.13 µg/mL
- MIC90 (Corynebacterium species): 2 µg/mL
- MIC90 (Propionibacterium acnes): 0.25 µg/mL
- MIC90 [14]: 8 µg/mL
- MIC90 [15]: 4 µg/mL
- MIC90 [16]: 32 µg/mL
- MIC90 [17]: 0.13 µg/mL
- MIC (E. coli (ATCC 25922)): 0.12 µg/mL
- MIC [18]: 4 µg/mL
- MIC (S. aureus (ATCC 29213)): 0.03 µg/mL
- remaining amount of the compound in solution ([19]; pH 3.5, 0 week): 100 percentage of the initial amount
- remaining amount of the compound in solution ([19]; pH 3.5, 2 weeks): 99.0 percentage of the initial amount
- remaining amount of the compound in solution ([19]; pH 3.5, 4 weeks): 98.8 percentage of the initial amount
- remaining amount of the compound in solution ([19]; pH 4.0, 0 week): 100 percentage of the initial amount
- remaining amount of the compound in solution ([19]; pH 4.0, 2 weeks): 98.5 percentage of the initial amount
- remaining amount of the compound in solution ([19]; pH 4.0, 4 weeks): 98.4 percentage of the initial amount
- remaining amount of the compound in solution ([19]; pH 4.5, 0 week): 100 percentage of the initial amount
- remaining amount of the compound in solution ([19]; pH 4.5, 2 weeks): 98.4 percentage of the initial amount
- remaining amount of the compound in solution ([19]; pH 4.5, 4 weeks): 98.4 percentage of the initial amount
- remaining amount of the compound in solution ([19]; pH 5.0, 0 week): 100 percentage of the initial amount
- remaining amount of the compound in solution ([19]; pH 5.0, 2 weeks): 98.2 percentage of the initial amount
- remaining amount of the compound in solution ([19]; pH 5.0, 4 weeks): 98.8 percentage of the initial amount
- remaining amount of the compound in solution ([19]; pH 5.5, 0 week): 100 percentage of the initial amount
- remaining amount of the compound in solution ([19]; pH 5.5, 2 weeks): 96.8 percentage of the initial amount
- remaining amount of the compound in solution ([19]; pH 5.5, 4 weeks): 96.8 percentage of the initial amount
- remaining amount of the compound in solution ([19]; pH 6.0, 0 week): 100 percentage of the initial amount
- remaining amount of the compound in solution ([19]; pH 6.0, 2 weeks): 96.3 percentage of the initial amount
- remaining amount of the compound in solution ([19]; pH 6.0, 4 weeks): 98.0 percentage of the initial amount
- remaining amount of the compound in solution ([19]; pH 6.5, 0 week): 100 percentage of the initial amount
- remaining amount of the compound in solution ([19]; pH 6.5, 2 weeks): 95.3 percentage of the initial amount
- remaining amount of the compound in solution ([19]; pH 6.5, 4 weeks): 95.6 percentage of the initial amount
- stability in solution (in words) ([19]; pH range of most interest for the present invention): stable

SMILES: CC1CCc2c(N3CCC(O)CC3)c(F)cc3c(=O)c(C(=O)O)cn1c23 (stereo not shown) [Nadifloxacin, nadifloxacin]
- MIC90 [1]: 0.006 µg/mL (≈ 0.0166 µM)
- MIC90 [2]: 0.39 µg/mL (≈ 1.08 µM)
- MIC90 [3]: 0.05 µg/mL (≈ 0.139 µM)
- MIC90 [4]: 0.024 µg/mL (≈ 0.0666 µM)
- MIC90 [5]: 0.024 µg/mL (≈ 0.0666 µM)
- MIC90 [6]: 0.1 µg/mL (≈ 0.277 µM)
- MIC90 [7]: 0.78 µg/mL (≈ 2.16 µM)
- MIC90 [8]: 0.78 µg/mL (≈ 2.16 µM)
- MIC90 [9]: 0.78 µg/mL (≈ 2.16 µM)
- MIC90 [10]: 0.1 µg/mL (≈ 0.277 µM)
- MIC90 [11]: 0.2 µg/mL (≈ 0.555 µM)
- MIC90 [12]: 1.56 µg/mL (≈ 4.33 µM)

SMILES: CC1COc2c(N3CCN(C)CC3)c(F)cc3c(=O)c(C(=O)O)cn1c23 (stereo not shown) [Ofloxacin, ofloxacin]
- MIC90 [1]: 0.05 µg/mL (≈ 0.138 µM)
- MIC90 [2]: 3.13 µg/mL (≈ 8.66 µM)
- MIC90 [3]: 0.39 µg/mL (≈ 1.08 µM)
- MIC90 [4]: 0.2 µg/mL (≈ 0.553 µM)
- MIC90 [5]: 0.2 µg/mL (≈ 0.553 µM)
- MIC90 [6]: 0.78 µg/mL (≈ 2.16 µM)
- MIC90 [7]: 1.56 µg/mL (≈ 4.32 µM)
- MIC90 [8]: 1.56 µg/mL (≈ 4.32 µM)
- MIC90 [9]: 0.78 µg/mL (≈ 2.16 µM)
- MIC90 [10]: 0.39 µg/mL (≈ 1.08 µM)
- MIC90 [11]: 0.78 µg/mL (≈ 2.16 µM)
- MIC90 [12]: 1.56 µg/mL (≈ 4.32 µM)
- MIC90 (Moraxella species): 0.13 µg/mL (≈ 0.36 µM)
- MIC90 (Pseudomonas aeruginosa): 4 µg/mL (≈ 11.1 µM)
- MIC90 (Haemophilus influenzae): ≤ 0.06 µg/mL
- MIC90 (Staphylococcus aureus): 32 µg/mL (≈ 88.6 µM)
- MIC90 [13]: 8 µg/mL (≈ 22.1 µM)
- MIC90 (Streptococcus pneumoniae): 2 µg/mL (≈ 5.53 µM)
- MIC90 (Corynebacterium species): 32 µg/mL (≈ 88.6 µM)
- MIC90 (Propionibacterium acnes): 1 µg/mL (≈ 2.77 µM)
- MIC90 [14]: > 128 µg/mL
- MIC90 [15]: 128 µg/mL (≈ 354 µM)
- MIC90 [16]: 64 µg/mL (≈ 177 µM)
- MIC90 [17]: 2 µg/mL (≈ 5.53 µM)

SMILES: C[C@@H]1CN(c2c(F)c(N)c3c(=O)c(C(=O)O)cn(C4CC4)c3c2F)C[C@H](C)N1 [Sparfloxacin, sparfloxacin]
- MIC90 [1]: 0.024 µg/mL (≈ 0.0612 µM)
- MIC90 [2]: 1.56 µg/mL (≈ 3.98 µM)
- MIC90 [3]: 0.1 µg/mL (≈ 0.255 µM)
- MIC90 [4]: 0.024 µg/mL (≈ 0.0612 µM)
- MIC90 [5]: 0.05 µg/mL (≈ 0.127 µM)
- MIC90 [6]: 0.2 µg/mL (≈ 0.51 µM)
- MIC90 [7]: 0.78 µg/mL (≈ 1.99 µM)
- MIC90 [8]: 0.39 µg/mL (≈ 0.994 µM)
- MIC90 [9]: 0.39 µg/mL (≈ 0.994 µM)
- MIC90 [10]: 0.2 µg/mL (≈ 0.51 µM)
- MIC90 [11]: 0.39 µg/mL (≈ 0.994 µM)
- MIC90 [12]: 0.78 µg/mL (≈ 1.99 µM)
